PubChem BioAssay (NCI)
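Growth conditions: 96-well plates. Treatment: test compound, 48 hours, 5 concentrations. Analysis: linear interpolation between bracketing concentrations; unreached endpoints set to highest concentration. TGI denotes the concentration required for complete inhibition of growth.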 Where a SMILES comes first, the peptide text is derived from it. The star is where a group is joined. Boc = CC(C)(C)OC(=O)*

Key:
Assay in all cases: NCI anticancer screen, dose series, 48 h
HOP-92 NSCLC = system: HOP-92 NSCLC
MDA-MB-435 = system: MDA-MB-435
PC-3 prostate = system: PC-3 prostate
RXF 393 renal = system: RXF 393 renal
HT29 colon = system: HT29 colon
DLD-1 colon = system: DLD-1 colon
DMS 114 small cell lung = system: DMS 114 small cell lung
DMS 273 small cell lung = system: DMS 273 small cell lung
HOP-18 NSCLC = system: HOP-18 NSCLC
KM20L2 colon = system: KM20L2 colon
LXFL 529 NSCLC = system: LXFL 529 NSCLC
SNB-78 CNS = system: SNB-78 CNS
M19-MEL melanoma = system: M19-MEL melanoma
XF 498 CNS = system: XF 498 CNS

O=C(O)CN1CCNCCN(CP(=O)(O)O)CC1
TGI (HOP-92 NSCLC): > 100 µM | TGI (MDA-MB-435): > 100 µM | TGI (PC-3 prostate): > 100 µM | TGI (RXF 393 renal): > 100 µM

N#Cc1c(-c2ccc(Cl)cc2)cc(-c2ccc(Nc3ccnc4cc(C(F)(F)F)ccc34)cc2)[nH]c1=O
TGI (HOP-92 NSCLC): 32.7 µM | TGI (HT29 colon): > 48.9 µM | TGI (MDA-MB-435): 10.2 µM | TGI (PC-3 prostate): > 100 µM | TGI (RXF 393 renal): 22.6 µM

O=C1/C(=C/c2cccnc2)C(n2cccc2)c2c(Br)sc(Br)c21 (centres undefined)
TGI (HOP-92 NSCLC): 4.64 µM | TGI (HT29 colon): 11.1 µM | TGI (MDA-MB-435): 3.42 µM | TGI (PC-3 prostate): 4.86 µM | TGI (RXF 393 renal): 4.45 µM

OC12c3ccccc3C1(N1CCOCC1)CCCCC21OCCCO1 (centres undefined)
TGI (DLD-1 colon): > 100 µM | TGI (DMS 114 small cell lung): > 100 µM | TGI (DMS 273 small cell lung): > 100 µM | TGI (HOP-18 NSCLC): > 100 µM | TGI (HT29 colon): > 100 µM | TGI (KM20L2 colon): > 100 µM | TGI (LXFL 529 NSCLC): > 100 µM | TGI (RXF 393 renal): > 100 µM | TGI (SNB-78 CNS): > 100 µM

O=C1CCCCC1CN1CCCC1 (centres undefined)
TGI (DLD-1 colon): > 100 µM | TGI (DMS 114 small cell lung): > 100 µM | TGI (DMS 273 small cell lung): > 100 µM | TGI (HT29 colon): > 100 µM | TGI (KM20L2 colon): > 100 µM | TGI (LXFL 529 NSCLC): > 100 µM | TGI (M19-MEL melanoma): > 100 µM | TGI (SNB-78 CNS): > 100 µM | TGI (XF 498 CNS): > 100 µM

CCOc1ccc(N=NC2C(=O)N(C(=O)CC(=O)Nc3ccccc3OC)N=C2C)cc1 (centres undefined)
TGI (HOP-92 NSCLC): > 50.6 µM | TGI (HT29 colon): > 100 µM | TGI (MDA-MB-435): 4.12 µM | TGI (PC-3 prostate): > 100 µM | TGI (RXF 393 renal): 26.3 µM

Cc1ccc(/C(O)=C/c2nc3ccccc3oc2=O)cc1
TGI (HT29 colon): > 100 µM | TGI (MDA-MB-435): 83.4 µM | TGI (PC-3 prostate): > 100 µM | TGI (RXF 393 renal): > 100 µM

COc1cc(/C=C2\C[C@H]3[C@@H]4CC=C5C[C@@H](O)CC[C@]5(C)[C@H]4CC[C@]3(C)[C@H]2O)cc(OC)c1OC
TGI (HOP-92 NSCLC): 65.8 µM | TGI (HT29 colon): 27.6 µM | TGI (MDA-MB-435): 87.2 µM | TGI (PC-3 prostate): 92.6 µM | TGI (RXF 393 renal): 18.3 µM

O=C1CCCCC/C1=C\c1ccc(F)cc1
TGI (HOP-92 NSCLC): > 100 µM | TGI (HT29 colon): > 100 µM | TGI (MDA-MB-435): > 100 µM | TGI (PC-3 prostate): > 100 µM

CC(NC(=O)C(NC(=O)OC(C)(C)C)C(C)C)C(=O)N1CCCC1C(=O)NCC(=O)NC(C(=O)NCC(=O)O)C(C)C (centres undefined) (Boc-VAPGVG-OH; configuration not given here)
TGI (HOP-92 NSCLC): > 100 µM | TGI (HT29 colon): > 100 µM | TGI (MDA-MB-435): > 100 µM | TGI (PC-3 prostate): > 100 µM

CC(=O)OC1CCN(C(=O)c2ccccc2)CC1CC1(c2cc3ccccc3[nH]2)OCCO1 (centres undefined)
TGI (HOP-92 NSCLC): > 100 µM | TGI (HT29 colon): > 100 µM | TGI (MDA-MB-435): > 100 µM | TGI (PC-3 prostate): > 100 µM | TGI (RXF 393 renal): > 100 µM

CCOC(=O)c1ccc(Nc2nc3cc(C(F)(F)F)ccc3nc2-c2ccccc2)cc1
TGI (HT29 colon): > 10 µM | TGI (MDA-MB-435): > 100 µM | TGI (PC-3 prostate): 69.2 µM | TGI (RXF 393 renal): 98 µM

Cc1ccc2c(c1)C(=O)/C(=C\c1ccccc1)CCS2(=O)=O
TGI (HOP-92 NSCLC): > 56.9 µM | TGI (HT29 colon): 24.1 µM | TGI (MDA-MB-435): > 61.4 µM | TGI (PC-3 prostate): > 71.1 µM

COc1cc(N=CN(C)C)c2ncccc2c1
TGI (HOP-92 NSCLC): > 100 µM | TGI (HT29 colon): > 100 µM | TGI (MDA-MB-435): > 100 µM | TGI (PC-3 prostate): > 100 µM | TGI (RXF 393 renal): > 100 µM

CCc1n[nH]c(=S)n1/N=C\c1ccc(-c2ccccc2Cl)o1
TGI (HOP-92 NSCLC): > 100 µM | TGI (HT29 colon): > 100 µM | TGI (MDA-MB-435): 48.4 µM | TGI (PC-3 prostate): > 100 µM | TGI (RXF 393 renal): > 100 µM

C/C=C(C)/C=C/CC(C)CCC=C(C)C (centres undefined)
TGI (HOP-92 NSCLC): > 100 µM | TGI (HT29 colon): > 100 µM | TGI (MDA-MB-435): > 100 µM | TGI (RXF 393 renal): > 100 µM

Cc1ccc(S(=O)(=O)N2CCN(S(=O)(=O)c3ccc(C)cc3)Cc3ccccc3C2)cc1
TGI (HT29 colon): > 100 µM | TGI (MDA-MB-435): > 100 µM

CCCN(CCCCC(NC(C)=O)C(=O)NCc1ccccc1)C(=O)N(C)N=O (centres undefined)
TGI (DLD-1 colon): > 100 µM | TGI (DMS 114 small cell lung): > 100 µM | TGI (DMS 273 small cell lung): > 100 µM | TGI (HOP-92 NSCLC): > 100 µM | TGI (HT29 colon): > 100 µM | TGI (KM20L2 colon): > 100 µM | TGI (LXFL 529 NSCLC): > 100 µM | TGI (M19-MEL melanoma): > 100 µM | TGI (RXF 393 renal): > 100 µM | TGI (SNB-78 CNS): > 100 µM | TGI (XF 498 CNS): > 100 µM

COc1ccc(C[C@@H]2Cc3cc(OC)c(OC)cc3CN2C)cc1
TGI (DLD-1 colon): > 100 µM | TGI (HT29 colon): > 100 µM | TGI (KM20L2 colon): > 100 µM | TGI (LXFL 529 NSCLC): > 100 µM | TGI (SNB-78 CNS): > 100 µM | TGI (XF 498 CNS): > 100 µM

COC(=O)[C@@H]1CN(C(=O)c2ccccc2)C(=O)N1
TGI (HOP-92 NSCLC): > 100 µM | TGI (HT29 colon): > 100 µM | TGI (MDA-MB-435): > 100 µM | TGI (PC-3 prostate): > 100 µM | TGI (RXF 393 renal): > 100 µM

CC1Cc2c(Br)nc(N)nc2NC1=O (centres undefined)
TGI (HT29 colon): > 100 µM | TGI (MDA-MB-435): > 100 µM | TGI (PC-3 prostate): > 100 µM

Cc1cc(C)nc(NS(=O)(=O)c2ccc(Nc3nncc(=O)n3N)cc2)n1
TGI (HT29 colon): 32.2 µM | TGI (MDA-MB-435): 33 µM | TGI (PC-3 prostate): 54.9 µM

CC(C)CNC(=O)CCc1cccc2c1oc1c(CCN)cccc12
TGI (HOP-92 NSCLC): 22.7 µM | TGI (HT29 colon): 22.6 µM | TGI (MDA-MB-435): 25.2 µM | TGI (PC-3 prostate): 34.3 µM | TGI (RXF 393 renal): 31.4 µM

COc1cc2cc(C(=O)N3CC(CCl)c4c3cc([N+](=O)[O-])c3ccccc43)[nH]c2c(OC)c1OC (centres undefined)
TGI (HOP-92 NSCLC): > 100 µM | TGI (HT29 colon): > 100 µM | TGI (MDA-MB-435): > 100 µM | TGI (PC-3 prostate): > 100 µM | TGI (RXF 393 renal): > 100 µM

OC(c1nc2ccccc2s1)(C(F)(F)F)C(F)(F)F
TGI (HT29 colon): > 100 µM | TGI (MDA-MB-435): > 100 µM | TGI (PC-3 prostate): > 100 µM | TGI (RXF 393 renal): > 100 µM

COc1ccc(N(C)S(=O)(=O)c2ccccc2)cc1
TGI (HT29 colon): > 100 µM | TGI (MDA-MB-435): > 100 µM | TGI (PC-3 prostate): > 100 µM | TGI (RXF 393 renal): > 100 µM

COc1ccc(NC(=O)CC(=O)N2N=C(N3CCCCC3)CC2c2ccccc2)cc1 (centres undefined)
TGI (HOP-92 NSCLC): > 100 µM | TGI (HT29 colon): > 100 µM | TGI (MDA-MB-435): > 100 µM | TGI (PC-3 prostate): > 100 µM | TGI (RXF 393 renal): > 100 µM

C#CCOC(=O)c1ccccc1O
TGI (HOP-92 NSCLC): > 100 µM | TGI (MDA-MB-435): > 100 µM | TGI (PC-3 prostate): > 100 µM | TGI (RXF 393 renal): > 100 µM

CCOC(=O)Cc1nnc2c(-c3ccccc3)nc3ccccc3n12
TGI (HOP-92 NSCLC): > 100 µM | TGI (HT29 colon): > 100 µM | TGI (MDA-MB-435): > 100 µM | TGI (PC-3 prostate): > 100 µM | TGI (RXF 393 renal): 36.4 µM

N#Cc1c2ccc([N+](=O)[O-])cc2c(=O)n2c1sc1ccc(C(F)(F)F)cc12
TGI (HOP-92 NSCLC): > 100 µM | TGI (HT29 colon): > 100 µM | TGI (MDA-MB-435): > 100 µM | TGI (RXF 393 renal): > 100 µM

O=C(/C=C(\O)c1ccc(Cl)cc1)C(=O)N=Nc1c(O)[nH]c2ccc(Br)cc12
TGI (HOP-92 NSCLC): > 100 µM | TGI (HT29 colon): > 100 µM | TGI (MDA-MB-435): > 100 µM | TGI (PC-3 prostate): > 100 µM | TGI (RXF 393 renal): > 100 µM

CC1CN=C(Nc2ccc(F)cc2F)S1 (centres undefined)
TGI (HOP-92 NSCLC): > 100 µM | TGI (PC-3 prostate): > 100 µM

CCCCCCCC1(N=[N+]=[N-])C(=O)c2ccccc2N(C)C1=O (centres undefined)
TGI (HOP-92 NSCLC): 89.6 µM | TGI (HT29 colon): > 100 µM | TGI (MDA-MB-435): > 100 µM | TGI (PC-3 prostate): > 100 µM | TGI (RXF 393 renal): > 100 µM
